Data: patent US8962626B2, “Thienopyridazine compounds, their preparations, pharmaceutical compositions and uses” (Zhejiang Medicine Co., Ltd. Xinchang Pharmaceutical Factory, priority 2008, dated 2015)
Where two headings read alike, the source gives them in different places.

Experiments:
[1] = system: Human ovarian cancer (A2780); assay: Cytotoxicity in vitro, SRB and MTT methods, 72 h; assay type: cell-based; details: A2780 cells, read-out: Anti-cancer Activity IC50 In vitro, A2780
Procedure: (§1) Some of the above compounds are tested in vitro and in vivo for their antitumor activities. Among these tests, the cytotoxicity is tested in vitro using SRB and MTT methods for 72 h.

Human colon cancer HT-29 = assay: Cytotoxicity in vitro, SRB and MTT methods, 72 h; assay type: cell-based; details: HT-29 cells, read-out: Anti-cancer Activity IC50 In vitro, HT-29
Procedure: as §1

Mouse lung cancer (3LL) = assay: Cytotoxicity in vitro, SRB and MTT methods, 72 h; assay type: cell-based; details: 3LL cells, read-out: Anti-cancer Activity IC50 In vitro, 3LL
Procedure: as §1

[2] = system: Human poorly differentiated gastric adenocarcinoma (BGC-823); assay: Cytotoxicity in vitro, SRB and MTT methods, 72 h; assay type: cell-based; details: BGC-823 cells, read-out: Anti-cancer Activity IC50 In vitro, BGC-823
Procedure: as §1

mouse S180 sarcoma = assay: Growth inhibition effect on mouse S180 sarcoma; assay type: in vivo; details: mouse S180, 50 mg/kg ip; for Rate of inhibition: N = 7; for Body Weight without Tumor / Ending Body Weight / Tumor Weight / Starting Body Weight: N = 7, X ± SD; for Starting Body Weight: baseline
[3] = system: transplanted tumor of human colon cancer HT-99; assay: Efficacy on transplanted tumor of human colon cancer HT-99 on nude mice; assay type: in vivo; details: compounds 60 mg/kg ip d0,1, GCT 20, ADR 4 mg/kg ip, combinations GCT or CPT-11 20 / ADR 4 ip + compound 25 mg/kg iv; for RTV (relative tumor volume) X ± SD / T/C: 17th day; for TV dn: dn = 17th day after administration

| Molecule | IC50 ([1]; Homo sapiens, A2780, 72 h) [µM] | IC50 (Human colon cancer HT-29; Homo sapiens, HT-29, 72 h) [µM] | IC50 (Mouse lung cancer (3LL); Mus musculus, 3LL) [µM] | IC50 ([2]; Homo sapiens, BGC-823, 72 h) [µM] | other results |
| --- | --- | --- | --- | --- | --- |
| NC(=O)c1nnc(Cc2ccoc2)c2cc(-c3ccc(F)cc3)sc12 [XXXXXVIII, 2-(4-fluorophenyl)-4-(3-furanmethyl)-thieno[2,3-d]pyridazinyl-7-formamide] | 13.9 | 21.8 | 21.4 | 16.4 | – |
| CNC(=O)c1nnc(CC2CCCNC2)c2cc(-c3ccc(Cl)cc3)sc12 (stereo not drawn) [XIV, 2-(4-chlorophenyl)-4-(3-piperidinemethyl)-thieno[2,3-d]pyridazinyl-7-N-methyl formamide] | 6.01 | 16.8 | 8.59 | 30.5 | – |
| NC(=O)c1nnc(CC2CCNC2)c2cc(-c3ccc(Cl)cc3)sc12 (stereo not drawn) [XXI, 2-(4-chlorophenyl)-4-(3-pyrrolidinemethyl)-thieno[2,3-d]pyridazinyl-7-formamide] | – | 8.68 | – | – | – |
| NC(=O)c1nnc(CC2CCOC2)c2cc(-c3ccc(Cl)cc3)sc12 (stereo not drawn) [XXIV, 2-(4-chlorophenyl)-4-(3-tetrahydrofuranmethyl)-thieno[2,3-d]pyridazinyl-7-formamide] | – | – | – | – | Rate of inhibition (mouse S180 sarcoma): 45.45%; Body Weight without Tumor (mouse S180 sarcoma): 21.56 ± 1.48 g; Ending Body Weight (mouse S180 sarcoma): 23.18 ± 1.66 g; Tumor Weight (mouse S180 sarcoma): 1.62 ± 0.26 g; Starting Body Weight (mouse S180 sarcoma): 19.39 ± 0.60 g |
| NC(=O)c1nnc(Cc2cccnc2)c2cc(-c3ccc(F)cc3)sc12 [XXXVIII, 2-(4-fluorophenyl)-4-(3-pyridinemethyl)-thieno[2,3-d]pyridazinyl-7-formamide] | 3.13 | 1.33 | 3.13 | 8.17 | – |
| NC(=O)c1nnc(CC2CCNCC2)c2cc(-c3ccc(Cl)cc3)sc12 [XI, 2-(4-chlorophenyl)-4-(4-piperidinemethyl)-thieno[2,3-d]pyridazinyl-7-formamide] | 11.8 | 10.7 | 8.43 | 9.24 | – |
| Nc1ccn([C@@H]2O[C@H](CO)[C@@H](O)C2(F)F)c(=O)n1 [GCT, Gemcitabine] | – | – | – | – | RTV (relative tumor volume) X ± SD [3]: 1.64 ± 0.44; T/C [3]: 37%; TV dn [3]: 463 ± 74 mm^3 |
| NC(=O)c1nnc(CC2CCNC2)c2cc(-c3ccc(F)cc3)sc12 (stereo not drawn) [Compound XX, 2-(4-fluorophenyl)-4-(3-pyrrolidinemethyl)-thieno[2,3-d]pyridazinyl-7-formamide] | – | – | – | – | Rate of inhibition (mouse S180 sarcoma): 37.23%; Body Weight without Tumor (mouse S180 sarcoma): 19.33 ± 1.60 g; Ending Body Weight (mouse S180 sarcoma): 21.19 ± 1.40 g; Tumor Weight (mouse S180 sarcoma): 1.86 ± 0.26 g; Starting Body Weight (mouse S180 sarcoma): 19.50 ± 0.89 g |
| NC(=O)c1nnc(CC2CCOC2)c2cc(-c3ccc(F)cc3)sc12 (stereo not drawn) [XXIII, 2-(4-fluorophenyl)-4-(3-tetrahydrofuranmethyl)-thieno[2,3-d]pyridazinyl-7-formamide] | > 100 | 5.57 | > 100 | > 100 | – |
| CNC(=O)c1nnc(Cc2ccoc2)c2cc(-c3ccc(Cl)cc3)sc12 [XXXXXXIX, 2-(4-chlorophenyl)-4-(3-furanmethyl)-thieno[2,3-d]pyridazinyl-7-N-methyl formamide] | 7.11 | 9.48 | 3.31 | 17 | – |
| CN(C)C(=O)c1nnc(Cc2ccoc2)c2cc(-c3ccc(Cl)cc3)sc12 [XXXXXXX, 2-(4-chlorophenyl)-4-(3-furanmethyl)-thieno[2,3-d]pyridazinyl-7-N,N-dimethyl formamide] | > 100 | > 100 | > 100 | 5.45 | – |
| 2-(4-bromophenyl)-4-(3-α-thiopyranmethyl)-thieno[2,3-d]pyridazinyl-7-formamide [XXXXVI] | – | – | – | – | IC50 [1]: 30.3 µM; IC50 (Human colon cancer HT-29): > 100 µM; IC50 (Mouse lung cancer (3LL)): > 100 µM; IC50 [2]: 11.1 µM |
| COc1cccc2c1C(=O)c1c(O)c3c(c(O)c1C2=O)C[C@@](O)(C(=O)CO)C[C@@H]3O[C@H]1C[C@H](N)[C@H](O)[C@H](C)O1 [ADR, Adriamycin] | – | – | – | – | RTV (relative tumor volume) X ± SD [3]: 4.38 ± 1.38; T/C [3]: 64%; TV dn [3]: 667 ± 67 mm^3 |
| NC(=O)c1nnc(CC2CCCNC2)c2cc(-c3ccc(F)cc3)sc12 (stereo not drawn) [Compound I, 2-(4-fluorophenyl)-4-(3-piperidinemethyl)-thieno[2,3-d]pyridazinyl-7-formamide] | 6.4 | 4.22 | 1.4 | 3.35 | – |
| NC(=O)c1nnc(CC2CCSC2)c2cc(-c3ccc(F)cc3)sc12 (stereo not drawn) [XXVI, 2-(4-fluorophenyl)-4-(3-tetrahydrothiophenemethyl)-thieno[2,3-d]pyridazinyl-7-formamide] | > 100 | > 100 | > 100 | 24.6 | – |
| CNC(=O)c1nnc(CC2CCSC2)c2cc(-c3ccc(Cl)cc3)sc12 (stereo not drawn) [XXXIV, 2-(4-chlorophenyl)-4-(3-tetrahydrothiophenemethyl)-thieno[2,3-d]pyridazinyl-7-N-methyl formamide] | > 100 | > 100 | 50.6 | 74.5 | – |
| NC(=O)c1nnc(CC2CCCNC2)c2cc(-c3ccc(Cl)cc3)sc12 (stereo not drawn) [XIII, 2-(4-chlorophenyl)-4-(R-3-piperidinemethyl)-thieno[2,3-d]pyridazinyl-7-formamide] | – | – | – | 2.62 | IC50 [1]: 1.18 µM; IC50 (Human colon cancer HT-29): 0.73 µM; IC50 (Mouse lung cancer (3LL)): 1.24 µM |
| CN(C)C(=O)c1nnc(CC2CCCNC2)c2cc(-c3ccc(Cl)cc3)sc12 (stereo not drawn) [XV, 2-(4-chlorophenyl)-4-(3-piperidinemethyl)-thieno[2,3-d]pyridazinyl-7-N,N-dimethyl formamide] | – | – | – | 2.25 | – |
